Test results reported in publication PMC10892984, “Novel Antineoplastic Inducers of Mitochondrial Apoptosis in Human Cancer Cells” (Molecules, 2024).

Legend:
MOLT-4 = settings: for TGI: MOLT-4, leukemia, mutant p53, 48 h
A549 = settings: for TGI: A549, non-small-cell lung cancer, wild-type p53, 48 h
NCI-H23 = settings: for TGI: NCI-H23, non-small-cell lung cancer, mutant p53, 48 h
NCI-H460 = settings: for TGI: NCI-H460, non-small-cell lung cancer, wild-type p53, 48 h
NCI-H522 = settings: for TGI: NCI-H522, non-small-cell lung cancer, mutant p53, 48 h
COLO 205 = settings: for TGI: COLO 205, colon cancer, mutant p53, 48 h
HCT-116 = settings: for TGI: HCT-116, colon cancer, wild-type p53, 48 h
SF-268 = settings: for TGI: SF-268, CNS cancer (brain tumor), mutant p53, 48 h
SF-295 = settings: for TGI: SF-295, CNS cancer (brain tumor), mutant p53, 48 h
SNB-19 = settings: for TGI: SNB-19, CNS cancer (brain tumor), mutant p53, 48 h
LOX IMVI = settings: for TGI: melanoma, wild-type p53, 48 h
M14 = settings: for TGI: M14, melanoma, mutant p53, 48 h
MDA-MB-435 = settings: for TGI: MDA-MB-435, melanoma, mutant p53, 48 h
SK-MEL-28 = settings: for TGI: SK-MEL-28, melanoma, mutant p53, 48 h
UACC-257 = settings: for TGI: UACC-257, melanoma, wild-type p53, 48 h
IGROV1 = settings: for TGI: IGROV1, ovarian cancer, mutant p53, 48 h
OVCAR-3 = settings: for TGI: OVCAR-3, ovarian cancer, mutant p53, 48 h
OVCAR-4 = settings: for TGI: OVCAR-4, ovarian cancer, mutant p53, 48 h
SK-OV-3 = settings: for TGI: SK-OV-3, ovarian cancer, no p53 protein expressed, 48 h
A498 = settings: for TGI: A498, renal cancer, wild-type p53, 48 h
ACHN = settings: for TGI: renal cancer, wild-type p53, 48 h
CAKI-1 = settings: for TGI: CAKI-1, renal cancer, wild-type p53, 48 h
SN12C = settings: for TGI: renal cancer, mutant p53, 48 h
PC-3 = settings: for TGI: PC-3, prostate cancer, mutant p53 (null p53 protein), 48 h
MCF7 = settings: for TGI: MCF7, breast cancer, wild-type p53, 48 h
HS 578T = settings: 48 h; for TGI: HS 578T, breast cancer, mutant p53
BT-549 = settings: for TGI: BT-549, breast cancer, mutant p53, 48 h
MDA-MB-468 = settings: for TGI: MDA-MB-468, breast cancer, mutant p53, 48 h
[1] = Homo sapiens, 48 h, read-out: LC50

Work on `COc1cc2c(c(OC)c1OC)-c1ccc(NNC(N)=S)c(=O)cc1C(NC(C)=O)CC2` [Compound 2, N-[(aS,7S)-10-(2-carbamothioylhydrazinyl)-1,2,3-trimethoxy-9-oxo-5,6,7,9-tetrahydrobenzo[a]heptalen-7-yl]acetamide monohydrate × ⅔ (ethyl acetate)] yielded a GI50 (MOLT-4; Homo sapiens, MOLT-4, 48 h) of 0.548 µM, a CC50 (MOLT-4; Homo sapiens, MOLT-4, 48 h, read-out: LC50) greater than 100 µM and a TGI (MOLT-4) greater than 100 µM. The TGI (A549) was greater than 100 µM, the GI50 (A549; Homo sapiens, A549, 48 h) was 3.23 µM and the CC50 (A549; Homo sapiens, A549, 48 h, read-out: LC50) was greater than 100 µM. For the same compound, the GI50 (NCI-H23; Homo sapiens, NCI-H23, 48 h) was 0.438 µM, the CC50 (NCI-H23; Homo sapiens, NCI-H23, 48 h, read-out: LC50) was greater than 100 µM and the TGI (NCI-H23) was greater than 100 µM. For the same compound, the GI50 (NCI-H460; Homo sapiens, NCI-H460, 48 h) was 0.429 µM, the CC50 (NCI-H460; Homo sapiens, NCI-H460, 48 h, read-out: LC50) was greater than 100 µM and the TGI (NCI-H460) was greater than 100 µM. For the same compound, the GI50 (NCI-H522; Homo sapiens, NCI-H522, 48 h) was 0.55 µM, the CC50 (NCI-H522; Homo sapiens, NCI-H522, 48 h, read-out: LC50) was greater than 100 µM and the TGI (NCI-H522) was greater than 100 µM. The TGI (COLO 205) was 0.622 µM, the GI50 (COLO 205; Homo sapiens, COLO 205, 48 h) was 0.28 µM and the CC50 (COLO 205; Homo sapiens, COLO 205, 48 h, read-out: LC50) was 9.13 µM. It also gave a TGI (HCT-116) of 10.6 µM, a GI50 (HCT-116; Homo sapiens, HCT-116, 48 h) of 0.377 µM and a CC50 (HCT-116; Homo sapiens, HCT-116, 48 h, read-out: LC50) greater than 100 µM. It also gave a GI50 (SF-268; Homo sapiens, SF-268, 48 h) of 0.581 µM, a CC50 (SF-268; Homo sapiens, SF-268, 48 h, read-out: LC50) greater than 100 µM and a TGI (SF-268) greater than 100 µM. The GI50 (SF-295; Homo sapiens, SF-295, 48 h) was 0.549 µM, the CC50 (SF-295; Homo sapiens, SF-295, 48 h, read-out: LC50) was greater than 100 µM and the TGI (SF-295) was greater than 100 µM. The GI50 (SNB-19; Homo sapiens, SNB-19, 48 h) was 0.686 µM, the CC50 (SNB-19; Homo sapiens, SNB-19, 48 h, read-out: LC50) was greater than 100 µM and the TGI (SNB-19) was greater than 100 µM. For the same compound, the GI50 (LOX IMVI; Homo sapiens, 48 h) was 0.71 µM, the CC50 (LOX IMVI; [1]) was greater than 100 µM and the TGI (LOX IMVI) was greater than 100 µM. The GI50 (M14; Homo sapiens, M14, 48 h) was 0.284 µM, the CC50 (M14; Homo sapiens, M14, 48 h, read-out: LC50) was greater than 100 µM and the TGI (M14) was 0.735 µM. The GI50 (MDA-MB-435; Homo sapiens, MDA-MB-435, 48 h) was 0.233 µM, the CC50 (MDA-MB-435; Homo sapiens, MDA-MB-435, 48 h, read-out: LC50) was greater than 100 µM and the TGI (MDA-MB-435) was 0.838 µM. For the same compound, the CC50 (SK-MEL-28; Homo sapiens, SK-MEL-28, 48 h, read-out: LC50) was greater than 100 µM, the TGI (SK-MEL-28) was greater than 100 µM and the GI50 (UACC-257; Homo sapiens, UACC-257, 48 h) was 0.646 µM. It also gave a CC50 (UACC-257; Homo sapiens, UACC-257, 48 h, read-out: LC50) greater than 100 µM, a TGI (UACC-257) greater than 100 µM and a GI50 (IGROV1; Homo sapiens, IGROV-1, 48 h) of 1.18 µM. The CC50 (IGROV1; Homo sapiens, IGROV-1, 48 h, read-out: LC50) was greater than 100 µM, the TGI (IGROV1) was greater than 100 µM and the GI50 (OVCAR-3; Homo sapiens, OVCAR-3, 48 h) was 0.217 µM. It also gave a TGI (OVCAR-3) of 0.459 µM, a GI50 (OVCAR-4; Homo sapiens, OVCAR-4, 48 h) of 0.507 µM and a CC50 (OVCAR-4; Homo sapiens, OVCAR-4, 48 h, read-out: LC50) greater than 100 µM. The TGI (OVCAR-4) was greater than 100 µM, the GI50 (SK-OV-3; Homo sapiens, SK-OV-3, 48 h) was 1.39 µM and the CC50 (SK-OV-3; Homo sapiens, SK-OV-3, 48 h, read-out: LC50) was greater than 100 µM. It also gave a TGI (SK-OV-3) greater than 100 µM, a TGI (A498) greater than 100 µM and a GI50 (A498; Homo sapiens, A498, 48 h) of 2.09 µM. The CC50 (A498; Homo sapiens, A498, 48 h, read-out: LC50) was greater than 100 µM, the GI50 (ACHN; Homo sapiens, 48 h) was 8.5 µM and the CC50 (ACHN; [1]) was greater than 100 µM. For the same compound, the TGI (ACHN) was greater than 100 µM, the TGI (CAKI-1) was greater than 100 µM and the GI50 (CAKI-1; Homo sapiens, CAKI-1, 48 h) was 7.12 µM. For the same compound, the CC50 (CAKI-1; Homo sapiens, CAKI-1, 48 h, read-out: LC50) was greater than 100 µM, the GI50 (SN12C; Homo sapiens, 48 h) was 0.828 µM and the CC50 (SN12C; [1]) was greater than 100 µM. The TGI (SN12C) was greater than 100 µM, the GI50 (PC-3; Homo sapiens, PC-3, 48 h) was 0.255 µM and the CC50 (PC-3; Homo sapiens, PC-3, 48 h, read-out: LC50) was greater than 100 µM. For the same compound, the TGI (PC-3) was greater than 100 µM, the GI50 (MCF7; Homo sapiens, MCF7, 48 h) was 0.415 µM and the CC50 (MCF7; Homo sapiens, MCF7, 48 h, read-out: LC50) was greater than 100 µM. It also gave a TGI (MCF7) greater than 100 µM, a TGI (HS 578T) greater than 100 µM and a GI50 (HS 578T; Homo sapiens, Hs-578T) greater than 100 µM. It also gave a CC50 (HS 578T; Homo sapiens, Hs-578T, read-out: LC50) greater than 100 µM, a TGI (BT-549) of 0.924 µM and a GI50 (BT-549; Homo sapiens, BT-549, 48 h) of 0.294 µM. For the same compound, the CC50 (BT-549; Homo sapiens, BT-549, 48 h, read-out: LC50) was greater than 100 µM, the GI50 (MDA-MB-468; Homo sapiens, MDA-MB-468, 48 h) was 0.158 µM and the CC50 (MDA-MB-468; Homo sapiens, MDA-MB-468, 48 h, read-out: LC50) was greater than 100 µM. The TGI (MDA-MB-468) was 0.464 µM.

`COc1cc2c(c(OC)c1OC)-c1ccc(NNC(=S)N(Cc3cccc(C[N+](Cc4cccc(CNC56CC7CC(CC(C7)C5)C6)c4)(Cc4cccc(CNC56CC7CC(CC(C7)C5)C6)c4)Cc4cccc(CN(C(=S)NNc5ccc6c(cc5=O)C(NC(C)=O)CCc5cc(OC)c(OC)c(OC)c5-6)C56CC7CC(CC(C7)C5)C6)c4)c3)C34CC5CC(CC(C5)C3)C4)c(=O)cc1C(NC(C)=O)CC2` [Compound 3, [(bis{3-[(tricyclo[3.3.1.1^3,7]decan-1-ylamino)methyl]benzyl}ammonio)bis(methanediylbenzene-3,1-diylmethanediyl)]di-2-[(aS,7S)-7-(acetylamino)-1,2,3-trimethoxy-9-oxo-5,6,7,9-tetrahydrobenzo[a]heptalen-10-yl]-N-(tricyclo[3.3.1.1^3,7]decan-1-yl)hydrazinecarbothioamide chloride pentahydrate] was tested, and the TGI (MOLT-4) was 1.93 µM, the TGI (A549) was 6.00 µM and the TGI (NCI-H23) was 5.33 µM. The TGI (NCI-H460) was 3.79 µM, the TGI (NCI-H522) was 1.88 µM and the TGI (COLO 205) was 1.52 µM. For the same compound, the TGI (HCT-116) was 3.07 µM, the TGI (SF-268) was 6.54 µM and the TGI (SF-295) was 5.92 µM. It also gave a TGI (SNB-19) of 6.20 µM, a TGI (LOX IMVI) of 2.86 µM and a TGI (M14) of 2.26 µM. It also gave a TGI (MDA-MB-435) of 3.50 µM, a TGI (SK-MEL-28) of 4.07 µM and a TGI (UACC-257) of 10.3 µM. The TGI (IGROV1) was 5.95 µM, the TGI (OVCAR-3) was 6.53 µM and the TGI (OVCAR-4) was 8.94 µM. It also gave a TGI (SK-OV-3) of 7.51 µM, a TGI (A498) of 3.28 µM and a TGI (ACHN) of 7.99 µM. For the same compound, the TGI (CAKI-1) was 7.37 µM, the TGI (SN12C) was 6.90 µM and the TGI (PC-3) was 5.64 µM. The TGI (MCF7) was 3.44 µM, the TGI (HS 578T) was 6.76 µM and the TGI (BT-549) was 5.89 µM. It also gave a TGI (MDA-MB-468) of 1.75 µM.
